According to the NIST ThermoML archive (doi:10.1021/je4001697):

Settings: Liquid, Pulse-echo method

Cc1ccccc1 [toluene]
Settings	speed of sound [m/s]
240 K, 103.32 kPa	1571
240 K, 1104.2 kPa	1575
240 K, 2104.9 kPa	1578.9
240 K, 3105.7 kPa	1582.8
240 K, 4106.3 kPa	1586.7
240 K, 5107.4 kPa	1590.5
240 K, 6107.7 kPa	1594.3
240 K, 7108.4 kPa	1598.1
240 K, 8109.1 kPa	1601.9
240 K, 9109.8 kPa	1605.7
240 K, 10110 kPa	1609.4
240 K, 12612 kPa	1618.6
240 K, 15114 kPa	1627.7
240 K, 17616 kPa	1636.7
240 K, 20117 kPa	1645.6
240 K, 25121 kPa	1663
240 K, 30124 kPa	1680
240 K, 35127 kPa	1696.5
240 K, 40131 kPa	1712.7
240 K, 45134 kPa	1728.5
240 K, 50138 kPa	1744
240 K, 60144 kPa	1774
240 K, 70151 kPa	1802.9
240 K, 80158 kPa	1830.7
240 K, 90165 kPa	1857.6
240 K, 100172 kPa	1883.6
260 K, 102.53 kPa	1476.8
260 K, 1103.4 kPa	1481.1
260 K, 2104 kPa	1485.4
260 K, 3104.8 kPa	1489.7
260 K, 4105.6 kPa	1493.9
260 K, 5106.5 kPa	1498.1
260 K, 6106.8 kPa	1502.3
260 K, 7107.5 kPa	1506.5
260 K, 8108.3 kPa	1510.6
260 K, 9109 kPa	1514.7
260 K, 10110 kPa	1518.8
260 K, 12612 kPa	1528.8
260 K, 15114 kPa	1538.7
260 K, 17615 kPa	1548.5
260 K, 20117 kPa	1558.1
260 K, 25121 kPa	1576.9
260 K, 30124 kPa	1595.2
260 K, 35128 kPa	1613
260 K, 40131 kPa	1630.4
260 K, 45134 kPa	1647.3
260 K, 50138 kPa	1663.9
260 K, 60145 kPa	1695.8
260 K, 70152 kPa	1726.5
260 K, 80160 kPa	1756
260 K, 90166 kPa	1784.3
260 K, 100174 kPa	1811.7
280 K, 103.62 kPa	1385.5
280 K, 1104.5 kPa	1390.2
280 K, 2105.3 kPa	1395
280 K, 3106.2 kPa	1399.7
280 K, 4107.1 kPa	1404.3
280 K, 5107.6 kPa	1408.9
280 K, 6108.1 kPa	1413.5
280 K, 7108.8 kPa	1418
280 K, 8109.4 kPa	1422.5
280 K, 9110.1 kPa	1427
280 K, 10111 kPa	1431.5
280 K, 12612 kPa	1442.4
280 K, 15114 kPa	1453.2
280 K, 17616 kPa	1463.8
280 K, 20118 kPa	1474.2
280 K, 25122 kPa	1494.5
280 K, 30125 kPa	1514.2
280 K, 35128 kPa	1533.3
280 K, 40132 kPa	1551.9
280 K, 45135 kPa	1570
280 K, 50138 kPa	1587.6
280 K, 60145 kPa	1621.5
280 K, 70152 kPa	1654
280 K, 80159 kPa	1685.1
280 K, 90166 kPa	1714.9
280 K, 100173 kPa	1743.7
300 K, 102.33 kPa	1297.2
300 K, 103.33 kPa	1297.1
300 K, 1103.2 kPa	1302.4
300 K, 2104.1 kPa	1307.6
300 K, 3104.7 kPa	1312.7
300.01 K, 1104.2 kPa	1302.4
300.01 K, 2104.9 kPa	1307.6
300.01 K, 3105.6 kPa	1312.7
300.01 K, 4106.4 kPa	1317.8
300.01 K, 5107 kPa	1322.9
300.01 K, 6107.4 kPa	1327.9
300.01 K, 7108.1 kPa	1332.8
300.01 K, 8108.7 kPa	1337.8
300.01 K, 9109.4 kPa	1342.6
300.01 K, 10110 kPa	1347.5
300.01 K, 12612 kPa	1359.4
300.01 K, 15113 kPa	1371.1
300.01 K, 17615 kPa	1382.5
300.01 K, 20117 kPa	1393.8
300.01 K, 25120 kPa	1415.7
300.01 K, 30124 kPa	1436.8
300.01 K, 35127 kPa	1457.3
300.01 K, 40130 kPa	1477.1
300.01 K, 45133 kPa	1496.4
300.01 K, 50136 kPa	1515.1
300.01 K, 60143 kPa	1551.1
300.01 K, 70150 kPa	1585.4
300.01 K, 80158 kPa	1618.1
300.01 K, 90166 kPa	1649.4
300.01 K, 100172 kPa	1679.5
320 K, 102.82 kPa	1211.6
320 K, 102.83 kPa	1211.6
320 K, 1103.6 kPa	1217.3
320 K, 2104.3 kPa	1223.1
320 K, 3105 kPa	1228.7
320 K, 4105.8 kPa	1234.3
320 K, 5106.6 kPa	1239.9
320 K, 6107.1 kPa	1245.4
320 K, 7107.8 kPa	1250.8
320 K, 8108.5 kPa	1256.2
320 K, 9109.2 kPa	1261.5
320 K, 10110 kPa	1266.8
320 K, 12612 kPa	1279.7
320 K, 15113 kPa	1292.4
320 K, 17615 kPa	1304.8
320 K, 20117 kPa	1317
320 K, 25120 kPa	1340.5
320 K, 30124 kPa	1363.2
320 K, 35127 kPa	1385.1
320 K, 40131 kPa	1406.2
320 K, 45134 kPa	1426.7
320 K, 50138 kPa	1446.5
320 K, 60145 kPa	1484.5
320 K, 70152 kPa	1520.6
320 K, 80159 kPa	1554.9
320 K, 90166 kPa	1587.7
320 K, 100173 kPa	1619.1
340 K, 102.94 kPa	1128.5
